A value given as a limit tells only on which side of the number the result lay.

Here are results for 1 compound from ChEMBL document CHEMBL2146450, “DNA Sequence Preference and Adduct Orientation of Pyrrolo[2,1-c][1,4]benzodiazepine Antitumor Agents” (ACS Med Chem Lett, 2010).

Common to all, as to assay type: nucleic-acid assay
In assay [1] the test system is Nucleic Acid. As to the kind of experiment: Binding affinity to 5'-TATA-AGA-TTT-TCT-TATA at 200 uM by HPLC/MS analysis.
The subject of assay [2] is Nucleic Acid. As to the kind of experiment: Binding affinity to 5'-TATA-TGT-TTT-ACA-TATA at 200 uM by HPLC/MS analysis.
The test system of assay [3] is Nucleic Acid. As to the kind of experiment: Binding affinity to 5'-TATA-AGT-TTT-ACT-TATA at 200 uM by HPLC/MS analysis.
In assay [4] the test system is Nucleic Acid. As to the kind of experiment: Binding affinity to 5'-TATA-TGA-TTT-TCA-TATA at 200 uM by HPLC/MS analysis.
Assay [5] relates to Nucleic Acid. As to the kind of experiment: Binding affinity to 5'-AGA-TATA-TTT-TATA-TCT at 200 uM by HPLC/MS analysis.
Assay [6] relates to Nucleic Acid. As to the kind of experiment: Binding affinity to 5'-TGT-TATA-TTT-TATA-ACA at 200 uM by HPLC/MS analysis.
Assay [7] concerns Nucleic Acid. Nature of the assay: Binding affinity to 5'-AGT-TATA-TTT-TATA-ACT at 200 uM by HPLC/MS analysis.
Assay [8] relates to Nucleic Acid. Nature of the assay: Binding affinity to 5'-TGA-TATA-TTT-TATA-TCA at 200 uM by HPLC/MS analysis.

On to `COC(=O)c1cc(NC(=O)c2cc(NC(=O)CCCOc3cc4c(cc3OC)C(=O)N3CCC[C@H]3C=N4)cn2C)cn1C`, for which the K in the assay on Nucleic Acid [1] is 0.091 µM/min; with Nucleic Acid [2], above 0.506 µM/min; in the assay on Nucleic Acid [3], 0.124 µM/min; in the assay with Nucleic Acid [4] it was above 0.364 µM/min; in the assay with Nucleic Acid [5], 0.132 µM/min; in the assay on Nucleic Acid [6] it was above 0.808 µM/min. Moreover, the K in the assay with Nucleic Acid [7] came to 0.096 µM/min; with Nucleic Acid [8], 0.196 µM/min.
